Measured values: patent publication US10035800B2 (AbbVie Inc., priority 2013, dated 2018)
pKi: −log10 of the molar value.

Columns and labels:
[1] = molecular target: T1, BRD4 (BDI_K57-E168) (Homo sapiens, UniProt O60885); assay: TR-FRET bromodomain binding assay, first bromodomain of BRD4; conditions: 100 nM probe
T1 construct: BD1: amino acids K57-E168; made in house
Procedure: (§1) Bromodomain Domain Binding Assay
(§2) A time-resolved fluorescence resonance energy transfer (TR-FRET) assay was used to determine the affinities of compounds of the Examples listed in Table 1 for each bromodomain of BRD4. His-tagged first (BD1: amino acids K57-E168) and second (BD2: amino acids […]) bromodomains of BRD4 were expressed and purified. An Alexa647-labeled BET-inhibitor was used as the fluorescent probe in the assay.
(§3) Compound dilution series were prepared in DMSO via an approximately 3-fold serial dilution from one of the following: […]
(§4) Assay method E: 0.47 mM to 7.8 nM […]
(§5) Assay method G: 0.047 mM to 0.78 nM
(§6) or 5-fold serial dilution from one of the following: […]
(§7) Assay method B: 2.5 mM-797 nM […]
(§8) For Assay methods B, E, and G: Compound dilutions were added directly into white, low-volume assay plates (Perkin Elmer Proxiplate 384 Plus#6008280) using a Labcyte Echo in conjunction with Labcyte Access and Thermo Multidrop CombinL robotics. Compounds were then suspended in eight microliters (μL) of assay buffer (20 mM Sodium Phosphate, pH 6.0, 50 mM NaCl, 1 mM Ethylenediaminetetraacetic acid disodium salt dihydrate, 0.01% Triton X-100, 1 mM DL-Dithiothreitol) containing His-tagged bromodomain, Europium-conjugated anti-His antibody (Invitrogen PV5596) and Alexa-647-conjugated probe.
(§9) The final concentration of 1× assay mixture for assay methods A, B, C, D, E, F, and G contains 2% DMSO, 8 nM His-tagged bromodomain, 1 nM Europium-conjugated anti-His-tag antibody and 100 nM or 30 nM probe (for BDI or BDII, respectively) and compound concentration in the range of: 50 μM-16 nM for method A, 49.02 μM-15.63 nM for method B, 25 μM-423 pM for method C, 10 μM-169 pM for method D, 9.19 μM-150 pM for method E, 5 μM-85 pM for method F, and 0.92 μM-15 pM for method G.
(§10) After a one-hour equilibration at room temperature, TR-FRET ratios were determined using an Envision multilabel plate reader (Ex 340, Em 495/520).
(§11) TR-FRET data were normalized to the means of 24 no-compound controls (“high”) and 8 controls containing 1 μM un-labeled probe (“low”). Percent inhibition was plotted as a function of compound concentration and the data were fit with the 4 parameter logistic equation to obtain IC50s. Inhibition constants (Ki) were calculated from the IC50s, probe Kd and probe concentration. Typical Z′ values were between 0.65 and 0.75. The minimum significant ratio was determined to evaluate assay reproducibility (Eastwood et al., (2006) J Biomol Screen, 11: 253-261). The MSR was determined to be 2.03 for BDI and 1.93 for BDII, and a moving MSR (last six run MSR overtime) for both BDI and BDII was typically <3.

[2] = molecular target: T2, BRD4 (BDII_E352-M457) (Homo sapiens, UniProt O60885); assay: TR-FRET bromodomain binding assay, second bromodomain of BRD4; conditions: 30 nM probe
T2 construct: protocol; made in house
Procedure: as §1, §2, §3, §4, §5, §6, §7, §8, §9, §10, §11

[3] = TR-FRET assay protocol G (compound 0.92 μM-15 pM)
[4] = TR-FRET assay protocol E (compound 9.19 μM-150 pM)

Row | pKi [1, 3] | pKi [2, 3] | pKi [1, 4] | pKi [2, 4] | Compound
1 | < 6.62 | < 6.39 |  |  | Cn1cc2c3c(c[nH]c3c1=O)CN(S(=O)(=O)c1ccc(F)cc1)c1ccc(CS(C)(=O)=O)cc1-2 [Example 80, 4-((4-fluorophenyl)sulfonyl)-10-methyl-7-((methylsulfonyl)methyl)-3,4-dihydro-1H-1,4,10-triazadibenzo[cd,f]azulen-11(10H)-one]
2 | 8.24 | 9.04 |  |  | COC(=O)CC[C@H]1c2c[nH]c3c(=O)n(C)cc(c23)-c2cc(CS(C)(=O)=O)ccc2N1c1ccc(F)cc1F (single isomer, unassigned) [Example 269]
3 | 7.52 | 7.57 |  |  | Cn1cc2c3c(c[nH]c3c1=O)CN(C(=O)Nc1ccc(F)c(C(F)(F)F)c1)c1ccc(CS(C)(=O)=O)cc1-2 [Example 71, N-(4-fluoro-3-(trifluoromethyl)phenyl)-10-methyl-7-((methylsulfonyl)methyl)-11-oxo-10,11-dihydro-1H-1,4,10-triazadibenzo[cd,f]azulene-4(3H)-carboxamide]
4 | 8.32 | 7.66 |  |  | CCCCC(CC)COC(=O)N1Cc2c[nH]c3c(=O)n(C)cc(c23)-c2cc(CS(C)(=O)=O)ccc21 (centres unmarked) [Example 53, 2-ethylhexyl 10-methyl-7-((methylsulfonyl)methyl)-11-oxo-10,11-dihydro-1H-1,4,10-triazadibenzo[cd,f]azulene-4(3H)-carboxylate]
5 | < 6.62 | 6.43 |  |  | Cc1ccc(S(=O)(=O)N2Cc3c[nH]c4c(=O)n(C)cc(c34)-c3cc(CS(C)(=O)=O)ccc32)cc1 [Example 74, 10-methyl-7-((methylsulfonyl)methyl)-4-tosyl-3,4-dihydro-1H-1,4,10-triazadibenzo[cd,f]azulen-11(10H)-one]
6 | 7.53 | 8.13 |  |  | Cn1cc2c3c(c[nH]c3c1=O)CN(C(=O)c1ccc(F)cc1)c1ccc(CS(C)(=O)=O)cc1-2 [Example 100, 4-(4-fluorobenzoyl)-10-methyl-7-((methylsulfonyl)methyl)-3,4-dihydro-1H-1,4,10-triazadibenzo[cd,f]azulen-11(10H)-one]
7 | 8.44 | 8.34 |  |  | CC(C1CCOCC1)N1Cc2c[nH]c3c(=O)n(C)cc(c23)-c2cc(CS(C)(=O)=O)ccc21 (racemic) [Example 188, 10-methyl-7-((methylsulfonyl)methyl)-4-(1-(tetrahydro-2H-pyran-4-yl)ethyl)-3,4-dihydro-1H-1,4,10-triazadibenzo[cd,f]azulen-11(10H)-one]
8 | 7.46 | 7.58 |  |  | COc1cccc(CC(=O)N2Cc3c[nH]c4c(=O)n(C)cc(c34)-c3cc(CS(C)(=O)=O)ccc32)c1 [Example 104, 4-(2-(3-methoxyphenyl)acetyl)-10-methyl-7-((methylsulfonyl)methyl)-3,4-dihydro-1H-1,4,10-triazadibenzo[cd,f]azulen-11(10H)-one]
9 | 7.27 | 7.82 |  |  | Cn1cc2c3c(c[nH]c3c1=O)CN(C(=O)c1ccc(F)cc1F)c1ccc(CS(C)(=O)=O)cc1-2 [Example 112, 4-(2,4-difluorobenzoyl)-10-methyl-7-((methylsulfonyl)methyl)-3,4-dihydro-1H-1,4,10-triazadibenzo[cd,f]azulen-11(10H)-one]
10 | 7.29 | 7.49 |  |  | Cn1cc2c3c(c[nH]c3c1=O)CN(C(=O)c1ccc3ccccc3c1)c1ccc(CS(C)(=O)=O)cc1-2 [Example 81, 4-(2-naphthoyl)-10-methyl-7-((methylsulfonyl)methyl)-3,4-dihydro-1H-1,4,10-triazadibenzo[cd,f]azulen-11(10H)-one]
11 | 7.22 | 7.11 |  |  | Cn1cc2c3c(c[nH]c3c1=O)C(C(=O)NC1CCCCC1)N(c1ccc(F)cc1F)c1ccc(CS(C)(=O)=O)cc1-2 (centres unmarked) [Example 158, N-cyclohexyl-4-(2,4-difluorophenyl)-10-methyl-7-((methylsulfonyl)methyl)-11-oxo-3,4,10,11-tetrahydro-1H-1,4,10-triazadibenzo[cd,f]azulene-3-carboxamide]
12 | 7.24 | 7.34 |  |  | Cn1cc2c3c(c[nH]c3c1=O)C(C(=O)NCc1cocn1)N(c1ccc(F)cc1F)c1ccc(CS(C)(=O)=O)cc1-2 (centres unmarked) [Example 163, 4-(2,4-difluorophenyl)-10-methyl-7-((methylsulfonyl)methyl)-N-(oxazol-4-ylmethyl)-11-oxo-3,4,10,11-tetrahydro-1H-1,4,10-triazadibenzo[cd,f]azulene-3-carboxamide]
13 | 7.07 | 7.96 |  |  | Cn1cc2c3c(c[nH]c3c1=O)CN(C(=O)c1ccccc1F)c1ccc(CS(C)(=O)=O)cc1-2 [Example 113, 4-(2-fluorobenzoyl)-10-methyl-7-((methylsulfonyl)methyl)-3,4-dihydro-1H-1,4,10-triazadibenzo[cd,f]azulen-11(10H)-one]
14 | 7.23 | 8.20 |  |  | (R)—N-ethyl-7-(ethylsulfonyl)-10-methyl-11-oxo-4-(1-phenylpropyl)-3,4,10,11-tetrahydro-1H-1,4,10-triazadibenzo[cd,f]azulene-2-carboxamide [Example 272]
15 | 8.95 | 9.06 |  |  | Cn1cc(-c2[nH]c3c(=O)n(C)cc4c3c2CN(c2ccccn2)c2ccc(CS(C)(=O)=O)cc2-4)cn1 [Example 273, 10-methyl-2-(1-methyl-1H-pyrazol-4-yl)-7-((methylsulfonyl)methyl)-4-(pyridin-2-yl)-3,4-dihydro-1H-1,4,10-triazadibenzo[cd,f]azulen-11(10H)-one]
16 | 8.92 | 8.93 |  |  | Cn1cc(-c2[nH]c3c(=O)n(C)cc4c3c2CN(c2ccc(F)cc2)c2ccc(CS(C)(=O)=O)cc2-4)cn1 [Example 276, 4-(4-fluorophenyl)-10-methyl-2-(1-methyl-1H-pyrazol-4-yl)-7-((methylsulfonyl)methyl)-3,4-dihydro-1H-1,4,10-triazadibenzo[cd,f]azulen-11(10H)-one]
17 | 7.19 | 7.04 |  |  | Cn1cc2c3c(c[nH]c3c1=O)CN(/C=C(/C=C/c1ccccc1)c1ccccc1)c1c(F)cc(F)cc1-2 [Example 57, 4-((1Z,3E)-2,4-diphenylbuta-1,3-dien-1-yl)-5,7-difluoro-10-methyl-3,4-dihydro-1H-1,4,10-triazadibenzo[cd,f]azulen-11(10H)-one]
18 | 8.39 | 7.97 |  |  | CCN1CCCC(CN2Cc3c[nH]c4c(=O)n(C)cc(c34)-c3cc(CS(C)(=O)=O)ccc32)C1 (centres unmarked) [Example 150, 4-((1-ethylpiperidin-3-yl)methyl)-10-methyl-7-((methylsulfonyl)methyl)-3,4-dihydro-1H-1,4,10-triazadibenzo[cd,f]azulen-11(10H)-one]
19 |  |  | 5.70 | 5.51 | Cn1cc2c3c(c[nH]c3c1=O)CNc1ccc(S(C)(=O)=O)cc1-2 [Example 4, 10-methyl-7-(methylsulfonyl)-3,4-dihydro-1H-1,4,10-triazadibenzo[cd,f]azulen-11(10H)-one]
20 | 6.90 | 6.93 |  |  | Cn1cc2c3c(c[nH]c3c1=O)C(C(=O)NCCCc1ccccc1)N(c1ccc(F)cc1F)c1ccc(CS(C)(=O)=O)cc1-2 (racemic) [Example 160, 4-(2,4-difluorophenyl)-10-methyl-7-((methylsulfonyl)methyl)-11-oxo-N-(3-phenylpropyl)-3,4,10,11-tetrahydro-1H-1,4,10-triazadibenzo[cd,f]azulene-3-carboxamide]
21 | 8.55 | 8.81 |  |  | Cn1cc(-c2[nH]c3c(=O)n(C)cc4c3c2CN(c2ccccc2)c2ccc(S(C)(=O)=O)cc2-4)cn1 [Example 274, 10-methyl-2-(1-methyl-1H-pyrazol-4-yl)-7-(methylsulfonyl)-4-phenyl-3,4-dihydro-1H-1,4,10-triazadibenzo[cd,f]azulen-11(10H)-one]

Row | Compound | pKi [1, 3] | pKi [2, 3] | pKi [1, 4] | pKi [2, 4]
22 | 2-(3-(10-methyl-7-((methylsulfonyl)methyl)-11-oxo-10,11-dihydro-1H-1,4,10-triazadibenzo[cd,f]azulen-4(3H)-yl)pyrrolidin-1-yl)acetic acid [Example 179] | 7.70 | 7.09 |  | 
